Data set [1] is described as follows: Critical micelle concentrations (CMC) of detergents. It is filed as physicochemical. As to conditions: source not stated. The source says:
RESULTS: Some ethylene glycol-containing surfactants can cause enhanced release of a self-quenching fluorescent marker dye from liposomes under 20 kHz ultrasound stimulation.[19] In FIG. 4, the rate of fluorescence increase caused by release of liposomally-entrapped calcein dye is shown in liposomes treated with five different surfactants. The total surfactant concentrations were normalized to the CMCs (Table 1, below). CMCs for TRITON® X-100, TRITON® X-405, PLURONIC® P-105 [20] and TWEEN® 80 were obtained from the literature. All surfactants, except DPPE-PEG2000, were dissolved in the buffer prior to the introduction of the liposomes. DPPE-PEG2000 was incorporated into the liposomes prior to extrusion. For all surfactants except TRITON® X-100, the rate of fluorescence increase in the absence of ultrasound was <0.04% per second, i.e., off the bottom of the figure. (At the higher TRITON® X-100 concentrations, the spontaneous leakage was >0.11% per second.) All of the surfactants induced about a 10-15 fold increase in the response to 20 kHz ultrasound. More remarkably, the surfactants reached maximal effectiveness at concentrations of about 1% of the critical micelle concentration. […] Furthermore, the different surfactants plateau at different levels. […]

Data set [2] is described as follows: Estimated partition coefficients (K) of detergents into the lipid membrane. It is filed as physicochemical. The note with it: estimated as inverse of CMC; P-105 at 37° C. The source says:
Critical micelle concentrations (CMC) and estimated partition coefficients (K) of several detergents assayed. For membrane-solubilizing detergents, the product of the CMC and the partition coefficient is of order unity.

The conditions of data set [3]: obtained from the literature; P-105 at 37° C.; cited from earlier work.

Read-outs that look alike come from different tables or passages of the source.

Consider “1,2-dipalmitoyl-sn-glycero-3-phosphoethanolamine-N-methoxy(polyethylene glycol)2000 [DPPE-PEG2000, reference compound]”, for which the CMC in data set [1] was determined as 70 µM. Besides, the K (estimated partition coefficient) in data set [2] is 14300 M⁻¹.
In the case of TWEEN ® 20, in data set [1], the CMC turned out to be 80 µM. For the same substance, the K (estimated partition coefficient) in data set [2] is 12500 M⁻¹.
As to TWEEN ® 80, in data set [3], the CMC was 100 µM. The K (estimated partition coefficient) in data set [2] is 10000 M⁻¹.
